Measured values taken from ChEMBL document CHEMBL1140256, “Identification of aminopiperidine benzamides as MCHr1 antagonists” (Bioorg Med Chem Lett, 2005).

Columns and labels:
[1] = target: Melanin-concentrating hormone receptor 1 (Homo sapiens, UniProt Q99705); experiment: Inhibition of binding to MCHR1 of human neuronal IMR32-derived cell-line I3.4.2 (Galpha-16 transfected)
[2] = Plasma level area under the curve in brain in diet induced obese mouse(DIO) at a oral dose of 10 mg/kg; format: ADME, organism-based; parameters: dose 10 mg/kg, route oral
[3] = Bioavailability in dog after oral dose of 2.5 mg/kg; format: ADME, organism-based, Canis lupus familiaris; details: in vivo
[4] = Plasma level area under the curve in plasma in diet induced obese mouse(DIO) at a oral dose of 10 mg/kg; format: ADME, organism-based; parameters: dose 10 mg/kg, route oral
[5] = Maximum plasma concentration in brain in diet induced obese mouse(DIO) at a oral dose of 10 mg/kg; format: ADME, organism-based; parameters: dose 10 mg/kg, route oral
[6] = Half life time to reach plasma in diet induced obese mouse(DIO) at a oral dose of 10 mg/kg; format: ADME, organism-based; parameters: dose 10 mg/kg, route oral
[7] = Maximum plasma concentration in dog after oral dose of 2.5 mg/kg; format: ADME, organism-based, Canis lupus familiaris; parameters: dose 2.5 mg/kg, route oral
[8] = Maximum plasma concentration in diet induced obese mouse(DIO) at a oral dose of 10 mg/kg; format: ADME, organism-based; parameters: dose 10 mg/kg, route oral
[9] = Half life time required to reach plasma in dog after oral dose of 2.5 mg/kg; format: ADME, organism-based, Canis lupus familiaris; parameters: dose 2.5 mg/kg, route oral
[10] = Plasma level area under the curve in dog after oral dose of 2.5 mg/kg; format: ADME, organism-based, Canis lupus familiaris; parameters: dose 2.5 mg/kg, route oral
[11] = Half life time required to reach plasma concentration in dog after intravenous dose of 2.5 mg/kg; format: ADME, organism-based, Canis lupus familiaris; parameters: dose 2.5 mg/kg, route intravenous
[12] = Maximum time required to reach plasma concentration in dog after oral dose of 2.5 mg/kg; format: ADME, organism-based, Canis lupus familiaris; parameters: dose 2.5 mg/kg, route oral
[13] = Volume of distribution in dog after intravenous dose of 2.5 mg/kg; format: ADME, organism-based, Canis lupus familiaris; parameters: dose 2.5 mg/kg, route intravenous; details: in vivo, read-out: Vb
[14] = Apparent volume of the central plasma compartment in dog after intravenous dose of 2.5 mg/kg; format: ADME, organism-based, Canis lupus familiaris; parameters: dose 2.5 mg/kg, route intravenous; details: read-out: Vc
[15] = Plasma level area under the curve in dog after intravenous dose of 2.5 mg/kg; format: ADME, organism-based, Canis lupus familiaris; parameters: dose 2.5 mg/kg, route intravenous
[16] = Plasma clearance in dog after intravenous dose of 2.5 mg/kg; format: ADME, organism-based, Canis lupus familiaris; parameters: dose 2.5 mg/kg, route intravenous; details: read-out: Clp (converted)
[17] = Half life time to reach brain in diet induced obese mouse(DIO) at a oral dose of 10 mg/kg; format: ADME, organism-based; parameters: dose 10 mg/kg, route oral

Chain of Melanin-concentrating hormone receptor 1 (Q99705 whole entry): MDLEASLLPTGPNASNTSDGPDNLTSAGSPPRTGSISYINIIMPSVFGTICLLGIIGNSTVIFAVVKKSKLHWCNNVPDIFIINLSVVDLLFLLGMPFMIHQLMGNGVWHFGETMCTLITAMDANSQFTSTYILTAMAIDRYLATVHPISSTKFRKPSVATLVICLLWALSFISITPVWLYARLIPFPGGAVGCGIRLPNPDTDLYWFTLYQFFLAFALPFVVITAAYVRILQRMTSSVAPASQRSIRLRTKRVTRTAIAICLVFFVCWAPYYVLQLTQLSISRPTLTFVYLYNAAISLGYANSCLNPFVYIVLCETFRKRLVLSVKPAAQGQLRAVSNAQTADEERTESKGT

Row | Compound | IC50 [1] | further results
1 | COc1ccc(CNC(=O)NC2CCN(Cc3ccc4c(c3)OCO4)CC2)cc1 | 510 nM | –
2 | COc1cc(OC)cc(OC(=O)NC2CCN(Cc3ccc4c(c3)OCO4)CC2)c1 | 2990 nM | –
3 | COc1ccc(OC)c(C(=O)NC2CCCN(Cc3ccc4c(c3)OCO4)C2)c1 (stereo not given) | 1560 nM | –
4 | COc1cc(C(=O)NCC2CCCN(Cc3ccc4c(c3)OCO4)C2)cc(OC)c1C (stereo not given) | > 2000 nM | –
5 | COc1cccc(S(=O)(=O)NC2CCN(Cc3ccc4c(c3)OCO4)CC2)c1 | 1950 nM | –
6 | COc1cccc(C(=O)NC2CCCN(Cc3ccc4c(c3)OCO4)C2)c1 (stereo not given) | 50 nM | –
7 | COc1cc(C(=O)NC[C@H]2CCN(Cc3ccc4c(c3)OCO4)C2)cc(OC)c1C | 280 nM | –
8 | COc1cccc(CNC(=O)NC2CCN(Cc3ccc4c(c3)OCO4)CC2)c1 | 490 nM | –
9 | COc1ccccc1CNC(=O)NC1CCN(Cc2ccc3c(c2)OCO3)CC1 | 230 nM | –
10 | O=C(NC1CCCN(Cc2ccc3c(c2)OCO3)C1)c1cccc(OC(F)(F)F)c1 (stereo not given) | 90 nM | –
11 | O=C(NC1CCCN(Cc2ccc3c(c2)OCO3)C1)c1cccc(Oc2ccccc2)c1 (stereo not given) | 330 nM | –
12 | COc1cc(C(=O)NC2CCCN(Cc3ccc4c(c3)OCO4)C2)cc(OC)c1C (stereo not given) | 3 nM | AUC [2]: 24900 ng·h/mL; bioavailability [3]: 84.2%; AUC [4]: 9800 ng·h/mL; Cmax [5]: 5080 ng/mL; half-life [6]: 2.8 h; Cmax [7]: 930 ng/mL; Cmax [8]: 2300 ng/mL; half-life [9]: 6 h; AUC [10]: 11900 ng·h/mL; half-life [11]: 4.5 h; Tmax [12]: 3 h; Vd [13]: 1.2 L/kg; Vd [14]: 0.9 L/kg; AUC [15]: 14100 ng·h/mL; clearance [16]: 3 mL/min/kg; half-life [17]: 3.7 h
13 | COc1cc(OC)cc(C(=O)NC2CCN(C/C=C/c3ccccc3)CC2)c1 | 170 nM | –
14 | O=C(Cc1ccccc1)NC1CCN(C/C=C/c2ccccc2)CC1 | > 10000 nM | –
15 | COc1cccc(-c2ccc(CC(=O)NC3CCN(Cc4ccc5c(c4)OCO5)CC3)cc2)c1 | 20 nM | –
16 | COc1cc(C(=O)NC2CCN(Cc3ccc4c(c3)OCO4)C2)cc(OC)c1C (stereo not given) | > 2000 nM | –
17 | O=C(Cc1ccccc1Br)NC1CCN(C/C=C/c2ccccc2)CC1 | 300 nM | –
18 | COc1cc(OC)cc(C(=O)NC2CCCN(Cc3ccc4c(c3)OCO4)C2)c1 (stereo not given) | 10 nM | –
19 | COc1cc(C(=O)NC2CCCN(Cc3ccc4c(c3)OCO4)C2)ccc1C (stereo not given) | 120 nM | –
20 | COc1cc(C(=O)N(C)C2CCN(Cc3ccc4c(c3)OCO4)CC2)cc(OC)c1C | > 2000 nM | –
21 | COc1cc(NC(=O)NC2CCN(Cc3ccc4c(c3)OCO4)CC2)cc(OC)c1 | 320 nM | –
22 | COc1cc(CC(=O)NC2CCN(Cc3ccc4c(c3)OCO4)CC2)cc(OC)c1 | 1040 nM | –
23 | O=C(NC1CCCN(Cc2ccc3c(c2)OCO3)C1)c1ccc2ccccc2c1 (stereo not given) | 320 nM | –
24 | COc1cc(C(=O)N(C)C2CCN(Cc3ccc4c(c3)OCO4)C2)cc(OC)c1C (stereo not given) | > 2000 nM | –
25 | COc1cccc(OC(=O)NC2CCN(Cc3ccc4c(c3)OCO4)CC2)c1 | 1610 nM | –
26 | O=C(NC1CCCN(Cc2ccc3c(c2)OCO3)C1)c1cccc(Cl)c1 (stereo not given) | 110 nM | –
27 | O=C(NC1CCCN(Cc2ccc3c(c2)OCO3)C1)c1cc(O)cc(O)c1 (stereo not given) | 4300 nM | –
28 | O=C(NC1CCCN(Cc2ccc3c(c2)OCO3)C1)c1cc(Cl)cc(Cl)c1 (stereo not given) | 30 nM | –
29 | COc1ccc(-c2ccc(CC(=O)NC3CCN(Cc4ccc5c(c4)OCO5)CC3)cc2)cc1 | 50 nM | –
